Results from ChEMBL document CHEMBL1201862, “PubChem BioAssay data set” (2004).
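Following 48 hours of exposure in 96-well plates, responses at five concentrations were used to interpolate endpoints linearly. GI50 marks 50% less growth.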 Active and inactive are the calls of the source. Rule as the data show it: active = GI50 up to about 1.1 µM and inactive = higher.

Legend:
Experiment in all cases: DTP human tumour cell line panel, 48 h
K562 = system: K562
RPMI-8226 = system: RPMI-8226
COLO 205 = system: COLO 205
SF-295 = system: SF-295
HOP-62 = system: HOP-62
HT-29 = system: HT-29
RXF 393 = system: RXF 393
HL-60 = system: HL-60
UO-31 = system: UO-31
NCI-H460 = system: NCI-H460
A498 = system: A498
UACC-62 = system: UACC-62
OVCAR-3 = system: OVCAR-3
SNB-75 = system: SNB-75
HOP-92 = system: HOP-92
OVCAR-8 = system: OVCAR-8
MOLT-4 = system: MOLT-4
EKVX = system: EKVX
SN12C = system: SN12C
SF-539 = system: SF-539

Measured: GI50

O=c1c2ccccc2[nH]c2c(O)ccc(O)c12
inactive: K562 17.5 µM | RPMI-8226 22.8 µM | COLO 205 > 10 µM | SF-295 17.3 µM | HOP-62 > 100 µM | HT-29 38.6 µM | RXF 393 11.7 µM | HL-60 2.64 µM | UO-31 37.7 µM | NCI-H460 24.9 µM | A498 38.3 µM | UACC-62 16.7 µM | OVCAR-3 16.6 µM | SNB-75 > 10 µM | HOP-92 18.8 µM | OVCAR-8 17.9 µM | MOLT-4 7.91 µM | EKVX > 41.7 µM | SN12C 14.2 µM | SF-539 27.6 µM

COc1ccc2c(c1)c(Cc1c(C)n(C)c3ccc(OC)cc13)c(C)n2C
inactive: K562 > 100 µM | RPMI-8226 > 100 µM | COLO 205 > 100 µM | SF-295 > 100 µM | HOP-62 > 100 µM | HT-29 > 100 µM | RXF 393 47.8 µM | HL-60 > 100 µM | UO-31 > 100 µM | NCI-H460 > 100 µM | A498 > 100 µM | UACC-62 > 100 µM | OVCAR-3 > 100 µM | SNB-75 > 100 µM | HOP-92 > 100 µM | OVCAR-8 > 100 µM | MOLT-4 > 100 µM | EKVX > 100 µM | SN12C > 100 µM | SF-539 > 100 µM

COc1ccc(/C(Cl)=C(\C=O)c2ccc([N+](=O)[O-])cc2)cc1
inactive: K562 3.12 µM | RPMI-8226 2.37 µM | COLO 205 19.1 µM | SF-295 13.2 µM | HOP-62 21.5 µM | HT-29 4.57 µM | RXF 393 11.5 µM | HL-60 3.08 µM | UO-31 18.5 µM | NCI-H460 18.3 µM | A498 22.4 µM | UACC-62 7.67 µM | OVCAR-3 18.4 µM | SNB-75 5.35 µM | HOP-92 6.97 µM | OVCAR-8 10.9 µM | MOLT-4 2.42 µM | EKVX 21.8 µM | SN12C 12.3 µM | SF-539 12.6 µM

Nc1nc2c(ncn2Cc2ccc(CO)cc2)c(=O)[nH]1
inactive: K562 > 100 µM | RPMI-8226 > 100 µM | COLO 205 > 100 µM | SF-295 > 100 µM | HOP-62 > 100 µM | HT-29 > 100 µM | RXF 393 > 100 µM | HL-60 4.42 µM | UO-31 > 100 µM | NCI-H460 > 100 µM | A498 > 100 µM | UACC-62 > 100 µM | OVCAR-3 > 100 µM | SNB-75 > 100 µM | HOP-92 > 100 µM | OVCAR-8 > 100 µM | MOLT-4 > 100 µM | EKVX > 100 µM | SN12C > 100 µM | SF-539 > 100 µM

COc1ccc(-n2c(N)c(C#N)[nH]c2=O)cc1
inactive: K562 > 10 µM | RPMI-8226 > 10 µM | COLO 205 > 10 µM | SF-295 2.77 µM | HOP-62 > 10 µM | HT-29 > 10 µM | RXF 393 > 10 µM | HL-60 > 10 µM | UO-31 > 10 µM | NCI-H460 > 10 µM | A498 > 10 µM | UACC-62 > 10 µM | OVCAR-3 > 10 µM | SNB-75 > 10 µM | HOP-92 > 10 µM | OVCAR-8 > 10 µM | MOLT-4 > 10 µM | EKVX > 10 µM | SN12C > 10 µM | SF-539 > 10 µM

CC(C)(C)[Si](C)(C)OC1C(=O)C[C@H]2CCCC[C@@H]12 (stereo not given in full)
inactive: K562 > 100 µM | RPMI-8226 > 100 µM | COLO 205 > 100 µM | SF-295 > 100 µM | HOP-62 > 100 µM | HT-29 > 100 µM | RXF 393 > 100 µM | HL-60 48.4 µM | UO-31 > 100 µM | NCI-H460 > 100 µM | A498 > 100 µM | UACC-62 > 100 µM | OVCAR-3 > 100 µM | SNB-75 > 100 µM | HOP-92 20.2 µM | OVCAR-8 > 100 µM | MOLT-4 > 100 µM | EKVX > 100 µM | SN12C > 100 µM | SF-539 > 100 µM

C=C1C(=O)OC2C[C@H](C)C3CC(=O)C(C)=C3CC12 (stereo not given in full)
inactive: K562 4.47 µM | RPMI-8226 4.45 µM | COLO 205 10.4 µM | SF-295 25.2 µM | HOP-62 23.4 µM | HT-29 12.5 µM | RXF 393 13.2 µM | HL-60 2.33 µM | UO-31 11.8 µM | NCI-H460 21.9 µM | A498 19.5 µM | UACC-62 11.8 µM | OVCAR-3 12.1 µM | SNB-75 14.6 µM | HOP-92 10.5 µM | OVCAR-8 16.8 µM | MOLT-4 6.92 µM | EKVX 16.3 µM | SN12C 12.1 µM | SF-539 17.2 µM

Oc1cccc2ccc(Br)nc12
inactive: K562 > 100 µM | RPMI-8226 97.9 µM | COLO 205 > 100 µM | SF-295 > 100 µM | HOP-62 > 100 µM | HT-29 > 100 µM | RXF 393 > 100 µM | HL-60 36.2 µM | UO-31 > 100 µM | NCI-H460 > 100 µM | A498 > 100 µM | UACC-62 > 100 µM | OVCAR-3 > 100 µM | SNB-75 > 100 µM | HOP-92 > 100 µM | OVCAR-8 > 100 µM | MOLT-4 > 100 µM | EKVX > 100 µM | SN12C > 100 µM | SF-539 > 100 µM

O/N=N/c1ccccn1.OCC1OC2OC3C(CO)OC(OC4C(CO)OC(OC5C(CO)OC(OC6C(CO)OC(OC7C(CO)OC(OC1C(O)C2O)C(O)C7O)C(O)C6O)C(O)C5O)C(O)C4O)C(O)C3O (stereo not given)
inactive: K562 48.4 µM | RPMI-8226 27.3 µM | COLO 205 > 100 µM | SF-295 > 100 µM | HOP-62 > 100 µM | HT-29 > 100 µM | RXF 393 > 100 µM | HL-60 28.1 µM | UO-31 > 100 µM | NCI-H460 68.7 µM | A498 > 100 µM | UACC-62 47.9 µM | OVCAR-3 40.8 µM | SNB-75 37.6 µM | HOP-92 > 100 µM | OVCAR-8 > 100 µM | MOLT-4 > 100 µM | EKVX > 100 µM | SN12C > 100 µM | SF-539 52.8 µM

COC(=O)[C@@]1(C(C)CC(=O)O)CCCCC1=O (stereo not given in full)
inactive: K562 > 100 µM | RPMI-8226 34.3 µM | COLO 205 50.7 µM | SF-295 > 100 µM | HOP-62 > 100 µM | HT-29 > 100 µM | RXF 393 > 100 µM | HL-60 > 100 µM | UO-31 > 100 µM | NCI-H460 > 100 µM | A498 > 100 µM | UACC-62 > 100 µM | OVCAR-3 > 100 µM | SNB-75 > 100 µM | HOP-92 > 100 µM | OVCAR-8 > 100 µM | MOLT-4 > 100 µM | EKVX > 100 µM | SN12C > 100 µM | SF-539 > 100 µM
